Data on 18 substances can be found in patent US6841535B2, “Peptide-mediated transfection agents and methods of use” (Active Motif, priority 2000, dated 2005).

Series [1] relates to mammalian fibroblasts, NIH 3T3 fibroblasts or murine L1210 lymphocytes. The series is described as follows: Cellular localization of lucifer yellow-linked peptides. Conditions: 3 min incubation at 10 μM. The class given is cell-based.
For series [2], the system named is HS-68 and NIH 3T3 cell lines. The series is described as follows: Peptide delivery by vector peptides (fluorescently labeled peptide B / peptide A). The class given is cell-based. Particulars: transfection of fluorescently labeled peptide; one micromolar vector peptide; 1 h. The method, then: (§1) We evaluated the ability of peptides designed according to principles described herein, as well as variants thereof, to deliver peptides and proteins into HS-68 and NIH 3T3 cell lines. Peptide delivery was performed with a 32 mer peptide (peptide B), and in some cases a […] peptide (peptide A). The peptides were fluorescently labeled. Peptides (5.0×10^−8M or 5.0×10^−7M) were incubated with one micromolar vector peptide in cell culture medium in the absence of serum for 30 min. Cultured cells (0.5 to 1.0×10^6) were then overlaid with the preformed peptide/vector peptide complexes in 500 μL DMEM for one hour in the presence or absence of FCS. Complexes were formed prior to addition of FCS to avoid interactions between ep-vector and serum proteins. Following this transfection step, fresh DMEM supplemented with serum was added for another hour. Then cells were extensively washed, fixed and analyzed by fluorescence microscopy.
(§2) The results of the experiments testing the transfection properties of the peptides are presented as a table in which the sequences are aligned for optimal comparison: […]

Series [3] relates to HS-68 and NIH 3T3 cell lines. The series can be described thus: Protein delivery by vector peptides (GFP). Type of series: cell-based. Particulars: transfection of GFP; incubated with peptide at a molar ratio of 1:20; 1 h. The method, then:
as §1
To investigate protein delivery we tested the delivery into cells of the fluorescent protein GFP. The protein was incubated with peptide at a molar ratio of 1:20, followed by overlay of the complex onto cultured cells. This was followed by incubation for 1 h. Then cells were extensively washed and fixed with formalin before observation.
as §2

Series [4] relates to HS-68 and NIH 3T3 cell lines. The series can be described thus: Drug delivery by vector peptides (ANS and Bis-ANS). The class given is cell-based. Particulars: transfection of ANS and Bis-ANS; incubated with peptide at a molar ratio of 1:20; 1 h. The method, then:
For investigation of drug delivery, we used the naphthalene derivatives ANS and Bis-ANS, which have intrinsic fluorescence. The drugs was incubated with peptide at a molar ratio of 1:20, followed by overlay of the complex onto cultured cells. This was followed by incubation for 1 h. Then cells were extensively washed and observed by microscopy.
as §2

The conditions of series [5]: phosphatidylcholine or phosphatidylserine monolayers; cited from earlier work.
Series [6] has as its system Acheloplasma laidlawii and Spiroplasma melliferum. Conditions: concentrations much lower than minimal inhibitory concentrations; cited from earlier work.
Series [7] has as its system human fibroblasts (HS-68). The series is described as follows: Cellular localization of rhodamine-labeled ODN-peptide conjugate. Type of series: cell-based. The method, then: The first ODN has the sequence d(GGTCTTACTCTCCGTCTCT) (SEQ ID NO:30). It was modified in 5′ by a hexamethylene-bridged pyridyldisulfide and in 3′ by a 2-propanol-3-amino group and labeled with rhodamine. Conjugation was performed by stirring a solution of the oligonucleotide with a three fold excess of peptide for 3 h. […] The target compartment of the conjugate remains to be identified.

*1 amine or outer side, *2 acyl side, *3 side chain or, on linkers, in order; H or OH if unused. Where no end group is shown, it is not given here. Cysteamide = C(CS[*:3])N[*:1]

On to “GALFLGWLGAAGSTMGARKKKRKV (Ac-GALFLGWLGAAGSTMGARKKKRKV; not fully specified (C-terminus); printed as GALFLGWLGAAGSTMGARKKKRKV) [[4]]”, for which the “final localization of lucifer yellow-linked peptide” value (shortened to “final localization”) in series [1] is recorded as “remains membrane associated”.
As to “GALFLGWLGAAGSTMGAWSQPKKKRKV (Ac-GALFLGWLGAAGSTMGAWSQPKKKRKV; not fully specified (C-terminus); printed as GALFLGWLGAAGSTMGAWSQPKKKRKV) [[3]]”, the “final localization” value in series [1] was “both localizations, membrane associate and nuclear”.
KETWWETWWETWSQKKKRKV [Pep-2.9-cya]: the Pep in series [2] was 5%.
Substance KETWWETWWTEWSQPKKRKV [Pep-2.1-cya] registered a Pep in series [2] of 80%. Besides, the Pro in series [3] was 70%. In series [4], the Drug was determined as 20%.
The corresponding values for KTWWETWWETWSQPKKRKV [Pep-4.2-cya] are “Aggr”, “Aggr” and “Aggr”.
The corresponding values for “Lys Glu Thr Trp Trp Glu Thr Trp Thr Trp Ser Gln Pro Lys Lys Lys Arg Lys Val (Ac-KETWWETWTWSQPKKKRKV-Cysteamide) [Pep-2.4-cya]” are 60%, 20-30% and 5%.
In the same order, the values of “Lys Glu Thr Trp Trp Glu Thr Trp Trp Glu Thr Trp Ser Gln Pro Lys Lys Lys Arg Lys Val (Ac-KETWWETWWETWSQPKKKRKV-Cysteamide) [Pep-2.3-cya]” are 60-70%, 50-70% and 30%.
Take “Lys Glu Thr Trp Trp Glu Thr Trp Trp Thr Glu Ala Ser Gln Pro Lys Lys Arg Lys Val (Ac-KETWWETWWTEASQPKKRKV-Cysteamide) [Pep-2.2-cya]”: the Pro in series [3] was 30%. The Drug in series [4] was 5%.
Take “Lys Glu Thr Trp Trp Glu Thr Trp Trp Thr Glu Trp Ser Gln Pro Lys Lys Lys Arg Lys Val (Ac-KETWWETWWTEWSQPKKKRKV-Cysteamide) [Pep-2-cya]”: the Drug in series [4] stood at 20%.
In the case of “Lys Lys Lys Arg Lys Val Lys Glu Thr Trp Trp Glu Thr Trp Trp Glu Thr Val (Ac-KKKRKVKETWWETWWETV-Cysteamide; SMILES CC(=O)N[C@@H](CCCCN)C(=O)N[C@@H](CCCCN)C(=O)N[C@@H](CCCCN)C(=O)N[C@@H](CCCNC(=N)N)C(=O)N[C@@H](CCCCN)C(=O)N[C@H](C(=O)N[C@@H](CCCCN)C(=O)N[C@@H](CCC(=O)O)C(=O)N[C@H](C(=O)N[C@@H](Cc1c[nH]c2ccccc12)C(=O)N[C@@H](Cc1c[nH]c2ccccc12)C(=O)N[C@@H](CCC(=O)O)C(=O)N[C@H](C(=O)N[C@@H](Cc1c[nH]c2ccccc12)C(=O)N[C@@H](Cc1c[nH]c2ccccc12)C(=O)N[C@@H](CCC(=O)O)C(=O)N[C@H](C(=O)N[C@H](C(=O)NCCS)C(C)C)[C@@H](C)O)[C@@H](C)O)[C@@H](C)O)C(C)C) [Pep-2.6-cya]”, in series [2], the Pep is 30%. Moreover, the Pro in series [3] was 20%.
In the same order, the values of “Lys Lys Lys Arg Lys Val Lys Pro Glu Thr Trp Trp Glu Thr Trp Trp Glu Thr Val (Ac-KKKRKVKPETWWETWWETV-Cysteamide) [Pep-2.7-cya]” are 20-30% and 10-20%.
As to “Lys Thr Trp Trp Glu Thr Trp Trp Glu Thr Ala Ser Gln Pro Lys Lys Arg Lys Val (Ac-KTWWETWWETASQPKKRKV-Cysteamide; SMILES CC(=O)N[C@@H](CCCCN)C(=O)N[C@H](C(=O)N[C@@H](Cc1c[nH]c2ccccc12)C(=O)N[C@@H](Cc1c[nH]c2ccccc12)C(=O)N[C@@H](CCC(=O)O)C(=O)N[C@H](C(=O)N[C@@H](Cc1c[nH]c2ccccc12)C(=O)N[C@@H](Cc1c[nH]c2ccccc12)C(=O)N[C@@H](CCC(=O)O)C(=O)N[C@H](C(=O)N[C@@H](C)C(=O)N[C@@H](CO)C(=O)N[C@@H](CCC(N)=O)C(=O)N1CCC[C@H]1C(=O)N[C@@H](CCCCN)C(=O)N[C@@H](CCCCN)C(=O)N[C@@H](CCCNC(=N)N)C(=O)N[C@@H](CCCCN)C(=O)N[C@H](C(=O)NCCS)C(C)C)[C@@H](C)O)[C@@H](C)O)[C@@H](C)O) [Pep-4.1-cya]”, the Pep result in series [2] is “Aggr”. Also, in series [3], the Pro result was “Aggr”. For the same substance, in series [4], the Drug result is “Aggr”.
As for “Lys Trp Trp Glu Thr Trp Trp Glu Thr Trp Ser Gln Pro Lys Lys Lys Arg Lys Val (Ac-KWWETWWETWSQPKKKRKV-Cysteamide) [Pep-2.5-cya]”, in series [2], the Pep is reported as 50-60%. For the same substance, in series [3], the Pro was 5%. The Drug in series [4] came to 5%.
Take “MGLGLHLLVLAAALQGAWSQPKKKRKV (Ac-MGLGLHLLVLAAALQGAWSQPKKKRKV; not fully specified (C-terminus); printed as MGLGLHLLVLAAALQGAWSQPKKKRKV) [[1]]”: the “final localization” value in series [1] was “localize in the nuclei of the cells”. For the same substance, the surface pressure increase in series [5] is about 15 mN/m. The “effect on membrane potential and transmembrane pH gradient” value in series [6] was “decrease”.
In series [2], “Tyr Gly Phe Lys Lys Arg Arg Gln Pro Thr Trp Trp Glu Thr Trp Trp Thr Glu (Ac-YGFKKRRQPTWWETWWTE-Cysteamide) [Pep-1.1-cya]” came in with a Pep of 80%. For the same substance, in series [3], the Pro is recorded as 60%. In addition, the Drug in series [4] was determined as 5%.
The corresponding values for “Tyr Gly Phe Lys Lys Arg Arg Gln Thr Trp Trp Glu Thr Trp Trp Thr Glu (Ac-YGFKKRRQTWWETWWTE-Cysteamide) [Pep-1.2-cya]” are 80%, 80-90% and 5%.
On to “Tyr Gly Phe Lys Lys Phe Arg Lys Pro Trp Thr Trp Trp Glu Thr Trp Trp Thr Glu (Ac-YGFKKFRKPWTWWETWWTE-Cysteamide; SMILES CC(=O)N[C@@H](Cc1ccc(O)cc1)C(=O)NCC(=O)N[C@@H](Cc1ccccc1)C(=O)N[C@@H](CCCCN)C(=O)N[C@@H](CCCCN)C(=O)N[C@@H](Cc1ccccc1)C(=O)N[C@@H](CCCNC(=N)N)C(=O)N[C@@H](CCCCN)C(=O)N1CCC[C@H]1C(=O)N[C@@H](Cc1c[nH]c2ccccc12)C(=O)N[C@H](C(=O)N[C@@H](Cc1c[nH]c2ccccc12)C(=O)N[C@@H](Cc1c[nH]c2ccccc12)C(=O)N[C@@H](CCC(=O)O)C(=O)N[C@H](C(=O)N[C@@H](Cc1c[nH]c2ccccc12)C(=O)N[C@@H](Cc1c[nH]c2ccccc12)C(=O)N[C@H](C(=O)N[C@@H](CCC(=O)O)C(=O)NCCS)[C@@H](C)O)[C@@H](C)O)[C@@H](C)O) [Pep-3-cya]”, for which, in series [2], the Pep is listed as 50%. For the same substance, in series [3], the Pro came to 5%. In addition, the Drug in series [4] is listed as 50-70%.
On to “d(GGTCTTACTCTCCGTCTCT) (DNA, backbone not given here; 5' hexamethylene pyridyldisulfide, 3' 2-propanol-3-amino, rhodamine label, peptide conjugated) [first ODN]”, for which, in series [7] (ODN conjugated to peptide, 5 min incubation), the “cellular localization of the conjugate” value is on record as “clearly cytoplasmic but not nuclear”. Further, in series [7] (free, not conjugated), the “cellular internalization of the free oligonucleotide” value was “no spontaneous cellular internalization could be detected”.
